Structures are written as SMILES.

The target in test [1] is Delta(24)-sterol reductase DHCR24 (Rattus norvegicus). The test can be described thus: Compound was tested for the inhibition of delta24-sterol reductase.
Test [2] shares this target. Described as above. This is another data set of the same source.

On to `C[C@H](CCC(=N)N)C1CC[C@@]2(C)C3=C(CC[C@]12C)[C@@]1(C)CC[C@H](O)C(C)(C)C1CC3` (stereo partly drawn), for which the Ki (in general, a dissociation constant, usually derived from enzyme kinetics or from competition with a known ligand) in test [1] turned out to be 7 nM.

On to `C[C@H](CCC(N)=[N+](C)C)C1CC[C@@]2(C)C3=C(CC[C@]12C)[C@@]1(C)CC[C@H](O)C(C)(C)C1CC3` (stereo partly drawn), for which the Ki in test [2] is 12 nM.

In test [1], `CC(C)[S+](C)CC[C@@H](C)C1CCC2C3CC=C4C[C@@H](O)CC[C@]4(C)C3CC[C@@]21C` (stereo partly drawn) showed a Ki of 4 nM.

These data come from BindingDB's records for doi:10.1021/jm00079a012 (Smithkline Beecham Pharmaceuticals, 1992).
